Experimental data: publication PMC9636434, “Discovery of small molecule agonists of the Relaxin Family Peptide Receptor 2” (Communications Biology, 2022)
Several values for one entry are separate records, joined by “and”; a condition that tells them apart may be missing. Equal entries are not always repeated.

What was measured:
Type in all cases: cell-based
RXFP2 = RXFP2 (Homo sapiens, UniProt Q8WXD0); test: HTRF cAMP assay in HEK-RXFP2 cells (stably transfected; also primary HTS); parameters: FLAG (N); expressed in transfected cells; settings: Fig. 1a, initial hit and enantiomers
Method: A quantitative high-throughput screening (HTS) of more than 80 K compounds of the NCATS/NIH diversity collection was performed at four concentrations in HEK293T cells stably expressing human RXFP2 to identify candidate agonists. A homogenous time resolved fluorescence (HTRF) assay was used to directly detect compound-induced cAMP accumulation, with forskolin or human recombinant INSL3 serving as positive controls. […] A confirmatory CRE-luciferase cAMP screen was used to eliminate any potential false positives due to assay detection artifacts (Supplementary Fig. 1a).
The cAMP response induced by the compounds was normalized to the cAMP response induced by 100 nM INSL3 as 100% efficacy and the cAMP response induced by DMSO vehicle as 0% efficacy. Emax and EC50 were calculated using four parameter nonlinear fit dose-response stimulation curves. […] Molecular weight (MW).
The HTRF Gs dynamic cAMP assay kit (CisBio, Bedford, MA) was used to measure intracellular cAMP accumulation in HEK293T cells (ATCC, Manassas, VA)[56]. […] The cell stock was verified mycoplasma free and authenticated by ATCC. Transient transfection was accomplished by treating cells in a 6-well plate with a mixture of 2 μg plasmid and 6 μL Lipofectamine 2000 (Invitrogen, Waltham, MA) per manufacturer’s protocol and incubating overnight. For cAMP measurement in 96-well format, HEK293T cells stably transfected with human RXFP2 (HEK-RXFP2), human RXFP1 (HEK-RXFP1), mouse Rxfp1 (HEK-Rxfp1) or transiently transfected with human RXFP1-RXFP2 chimeric receptors were seeded between 7500 and 30,000 cells per well, depending on cell line responsiveness, in serum-free DMEM medium and incubated overnight at 37 °C, 5% CO2. After 18 h, cells were treated with a titration of compound, 2 μM forskolin, or DMSO vehicle. Control wells were also treated with a titration of INSL3 (Phoenix Pharmaceuticals, Burlingame, CA) or human recombinant relaxin 2 (Peprotech, Cranbury, NJ). For the RXFP2 antagonist experiment, cells were co-treated with 0.28 μM compound or 30 nM INSL3 and a titration of the INSL3 B dimer antagonist[38],[39]. For the INSL3 allosteric modulation experiment, cells were co-treated with 0.025, 0.0025, or 0.00025 μM of compound and a titration of INSL3. Cells were incubated for 1 h at 37 °C, 5% CO2, and then kit cAMP-d2 and anti-cAMP antibody were added per manufacturer protocol. Plates were incubated for 1 h at room temperature and the signal was read on a CLARIOstar plate reader (BMG Labtech, Ortenberg, Germany) at 665 and 620 nm emission wavelengths.

human RXFP3 = target: T1, human RXFP3 (Homo sapiens, UniProt Q9NSD7); test: GloSensor cAMP assay in RXFP3 transiently transfected HEK293T cells; settings: for RLU (cAMP, raw): RXFP3, 0.1 µM isoproterenol, replicates (1)-(4)
T1 construct: host or cells: HEK293T (transient)
T1 sequence (Q9NSD7 1-469): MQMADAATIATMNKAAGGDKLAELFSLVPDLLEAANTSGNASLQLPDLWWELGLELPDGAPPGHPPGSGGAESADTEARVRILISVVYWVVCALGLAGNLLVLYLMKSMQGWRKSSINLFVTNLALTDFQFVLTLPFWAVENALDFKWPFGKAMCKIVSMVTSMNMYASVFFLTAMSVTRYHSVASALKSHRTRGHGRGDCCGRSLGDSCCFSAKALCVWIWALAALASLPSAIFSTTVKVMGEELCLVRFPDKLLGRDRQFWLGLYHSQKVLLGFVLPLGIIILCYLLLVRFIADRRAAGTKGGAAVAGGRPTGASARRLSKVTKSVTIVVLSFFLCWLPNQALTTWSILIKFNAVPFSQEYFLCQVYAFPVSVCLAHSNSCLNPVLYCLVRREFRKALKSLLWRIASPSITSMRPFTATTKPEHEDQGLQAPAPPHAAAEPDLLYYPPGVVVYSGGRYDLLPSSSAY

human RXFP4 = target: T2, human RXFP4 (Homo sapiens, UniProt Q8TDU9); test: GloSensor cAMP assay in RXFP4 transiently transfected HEK293T cells; settings: for RLU (cAMP, raw): RXFP4, 0.1 µM isoproterenol, replicates (1)-(4)
T2 construct: host or cells: HEK293T (transient)

[1] = cAMP induced by 0.1 µM isoproterenol

T2 sequence (Q8TDU9 whole entry): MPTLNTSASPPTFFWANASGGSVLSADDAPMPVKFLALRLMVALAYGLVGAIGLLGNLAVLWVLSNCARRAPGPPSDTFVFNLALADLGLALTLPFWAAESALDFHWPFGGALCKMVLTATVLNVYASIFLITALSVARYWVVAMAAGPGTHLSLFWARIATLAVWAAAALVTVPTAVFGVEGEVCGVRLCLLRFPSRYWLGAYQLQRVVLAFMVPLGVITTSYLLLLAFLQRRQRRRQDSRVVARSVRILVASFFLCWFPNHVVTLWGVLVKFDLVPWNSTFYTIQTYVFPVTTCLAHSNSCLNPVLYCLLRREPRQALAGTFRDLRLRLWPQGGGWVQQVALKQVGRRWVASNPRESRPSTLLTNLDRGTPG
Chain of RXFP2 (Q8WXD0 whole entry): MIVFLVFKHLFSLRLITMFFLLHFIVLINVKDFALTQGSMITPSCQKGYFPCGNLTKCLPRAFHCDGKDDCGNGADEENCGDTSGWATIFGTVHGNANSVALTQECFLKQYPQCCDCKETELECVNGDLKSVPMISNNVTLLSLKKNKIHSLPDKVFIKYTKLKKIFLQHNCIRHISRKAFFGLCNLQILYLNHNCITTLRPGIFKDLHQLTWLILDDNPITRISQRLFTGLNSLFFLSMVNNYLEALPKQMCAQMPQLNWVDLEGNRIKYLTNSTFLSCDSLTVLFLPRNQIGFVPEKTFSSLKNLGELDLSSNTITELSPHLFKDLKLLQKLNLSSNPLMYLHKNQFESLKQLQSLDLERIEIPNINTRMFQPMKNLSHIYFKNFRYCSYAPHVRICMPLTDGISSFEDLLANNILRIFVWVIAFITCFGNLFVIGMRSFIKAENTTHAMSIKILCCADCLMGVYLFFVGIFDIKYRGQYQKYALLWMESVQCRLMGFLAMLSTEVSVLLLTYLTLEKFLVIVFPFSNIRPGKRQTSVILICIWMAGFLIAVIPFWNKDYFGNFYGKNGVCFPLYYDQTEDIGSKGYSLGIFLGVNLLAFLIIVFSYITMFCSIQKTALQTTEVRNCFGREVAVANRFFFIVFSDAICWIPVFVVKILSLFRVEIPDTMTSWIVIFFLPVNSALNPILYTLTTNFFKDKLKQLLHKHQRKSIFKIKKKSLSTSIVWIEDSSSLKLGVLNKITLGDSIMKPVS

Compound: O=C1Nc2ccc(-c3cccc(C(F)(F)F)c3)cc2C(=O)N2CCN(C(=O)COc3ccccc3)C[C@H]12 [compound 9940]
- RXFP2 agonist activity in SAR scheme (Active / Inactive) (RXFP2): Inactive

Compound: O=C1Nc2ccc(-c3cccc(C(F)(F)F)c3)cc2C(=O)N2CCN(C(=O)COc3ccccc3)CC12 (centres unmarked) [compound 8685]
- RXFP2 agonist activity in SAR scheme (Active / Inactive) (RXFP2): Active

Compound: O=C1Nc2ccc(-c3cccc(C(F)(F)F)c3)cc2C(=O)N2CCN(C(=O)COc3ccccc3)C[C@@H]12 [compound 9941]
- RXFP2 agonist activity in SAR scheme (Active / Inactive) (RXFP2): Active

Compound: Relaxin 3 [reference compound]
- RLU (cAMP, raw) (human RXFP3; Log [M] -6.52): 1192.27 RLU and 862.59 RLU and 949.473 RLU and 1055.99 RLU
- RLU (cAMP, raw) (human RXFP3; Log [M] -7): 1047.66 RLU and 816.174 RLU and 793.561 RLU and 818.554 RLU
- RLU (cAMP, raw) (human RXFP3; Log [M] -7.52): 956.019 RLU and 1042.31 RLU and 964.35 RLU and 906.626 RLU
- RLU (cAMP, raw) (human RXFP3; Log [M] -8): 852.474 RLU and 715.01 RLU and 962.564 RLU and 860.21 RLU
- RLU (cAMP, raw) (human RXFP3; Log [M] -8.52): 886.989 RLU and 845.333 RLU and 966.73 RLU and 845.928 RLU
- RLU (cAMP, raw) (human RXFP3; Log [M] -9): 816.769 RLU and 926.264 RLU and 1003.03 RLU and 782.254 RLU
- RLU (cAMP, raw) (human RXFP3; Log [M] -9.52): 998.865 RLU and 951.853 RLU and 1093.48 RLU and 960.779 RLU
- RLU (cAMP, raw) (human RXFP3; Log [M] -10): 1300.57 RLU and 1261.3 RLU and 1319.62 RLU and 1454.11 RLU
- RLU (cAMP, raw) (human RXFP3; Log [M] -10.52): 1602.51 RLU and 1583.63 RLU and 1833.56 RLU and 1666.69 RLU
- RLU (cAMP, raw) (human RXFP3; Log [M] -11): 1772.4 RLU and 1591.93 RLU and 1761.07 RLU and 2392.31 RLU
- RLU (cAMP, raw) (human RXFP3; Log [M] -11.52): 1947.57 RLU and 1934.74 RLU and 2203.54 RLU and 1701.42 RLU
- RLU (cAMP, raw) (human RXFP3; Log [M] -12): 1918.12 RLU and 1736.15 RLU and 2144.65 RLU and 2026.1 RLU
- activation of RXFP3 (cAMP inhibition) (human RXFP3; [1]): cAMP inhibition was induced
- RLU (cAMP, raw) (human RXFP4; Log [M] -6.48): 1291.4 RLU and 1273.39 RLU and 1346.81 RLU and 1344.73 RLU
- RLU (cAMP, raw) (human RXFP4; Log [M] -7): 1098.17 RLU and 1299.02 RLU and 1204.83 RLU and 1290.02 RLU
- RLU (cAMP, raw) (human RXFP4; Log [M] -7.48): 1677.86 RLU and 1738.12 RLU and 1419.53 RLU and 1594.75 RLU
- RLU (cAMP, raw) (human RXFP4; Log [M] -8): 1308.71 RLU and 1324.64 RLU and 953.421 RLU and 1409.83 RLU
- RLU (cAMP, raw) (human RXFP4; Log [M] -8.48): 1529.65 RLU and 1656.39 RLU and 1650.16 RLU and 1971.52 RLU
- RLU (cAMP, raw) (human RXFP4; Log [M] -9): 1954.9 RLU and 1829.54 RLU and 1896.03 RLU and 2124.58 RLU
- RLU (cAMP, raw) (human RXFP4; Log [M] -9.48): 2502.74 RLU and 2781.85 RLU and 2785.32 RLU and 3087.98 RLU
- RLU (cAMP, raw) (human RXFP4; Log [M] -10): 2794.2 RLU and 2602.12 RLU and 2925.02 RLU and 3021.06 RLU
- RLU (cAMP, raw) (human RXFP4; Log [M] -10.48): 3431.68 RLU and 3104.99 RLU and 3415.8 RLU and 3651.73 RLU
- RLU (cAMP, raw) (human RXFP4; Log [M] -11): 3106.51 RLU and 3181.37 RLU and 2993.83 RLU and 2959.05 RLU
- RLU (cAMP, raw) (human RXFP4; Log [M] -11.48): 3672.91 RLU and 3117.85 RLU and 3373.45 RLU and 3185.15 RLU
- RLU (cAMP, raw) (human RXFP4; Log [M] -12): 3273.63 RLU and 3139.78 RLU and 2622.54 RLU and 2913.68 RLU
- activation of RXFP4 (cAMP inhibition) (human RXFP4; [1]): cAMP inhibition was induced
